Experimental data as given in US20260001928A1 (CORTERIA PHARMACEUTICALS, priority 2022, published 2026).
*1 amine or outer side, *2 acyl side, *3 side chain or, on linkers, in order; H or OH if unused. Where a SMILES comes first, the peptide text is derived from it. Side-chain parts run from the residue outwards. [ ]: non-standard residue; d: D form. The star is where a group is joined. C20 diacid = O=C(O)CCCCCCCCCCCCCCCCCCC(=O)*; C18 diacid = O=C(O)CCCCCCCCCCCCCCCCC(=O)*; C16 diacid = O=C(O)CCCCCCCCCCCCCCC(=O)*; γGlu = O=C(O)[C@H](CCC(=O)[*:2])N[*:1]; Decanoyl = CCCCCCCCCC(=O)*; Nva = CCC[C@H](N)C(=O)O; Pentanoyl = CCCCC(=O)*; Aib = CC(C)(N)C(=O)O

How the values were obtained:
human CRF2a receptor = target: T1, human CRF2a receptor (Homo sapiens, UniProt Q13324); assay: Activity at human CRF2a receptor, cAMP functional assay in TeloHEAC cells; assay type: cell-based; conditions: TeloHEAC cells stably expressing human CRF2a receptor, relative to urocortin 2 (100 nM = 100%)
T1 construct: expressed in transfected cells; host or cells: TeloHEAC cells
T1 sequence (Q13324 1-411): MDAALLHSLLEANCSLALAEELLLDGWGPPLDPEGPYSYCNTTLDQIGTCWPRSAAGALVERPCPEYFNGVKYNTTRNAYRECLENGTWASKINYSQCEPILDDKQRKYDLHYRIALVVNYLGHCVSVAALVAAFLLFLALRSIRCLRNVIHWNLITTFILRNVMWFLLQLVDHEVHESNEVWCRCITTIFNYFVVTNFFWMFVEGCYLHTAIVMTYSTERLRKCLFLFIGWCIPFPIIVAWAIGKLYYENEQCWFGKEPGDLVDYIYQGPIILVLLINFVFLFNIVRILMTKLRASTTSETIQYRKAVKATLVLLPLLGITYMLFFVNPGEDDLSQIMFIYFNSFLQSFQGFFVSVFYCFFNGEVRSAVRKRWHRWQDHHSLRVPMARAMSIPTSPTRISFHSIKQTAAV
Method in brief: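 cAMP accumulation was measured by HTRF 665/620 nm ratio after 30 min at 37° C compound exposure (16 twofold dilutions) of CRF2a-expressing TeloHEAC cells, 10000/well, in HEPES-buffered HBSS plus IBMX. Activity was normalised to urocortin 2 at 100 nM (100%), and EC50 was the concentration giving half-maximal activation.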

CFR1R receptor = target: T2, CFR1R receptor (Homo sapiens, UniProt P34998); assay: Activity at anti-target CFR1R receptor, cAMP assay in CRF1R-overexpression CHO-K1 cells; assay type: cell-based; conditions: 100% = Sauvagine at 100 nM; for EC50: cAMP
T2 construct: host or cells: CHO-K1 (clone 2)
T2 sequence (P34998 24-415): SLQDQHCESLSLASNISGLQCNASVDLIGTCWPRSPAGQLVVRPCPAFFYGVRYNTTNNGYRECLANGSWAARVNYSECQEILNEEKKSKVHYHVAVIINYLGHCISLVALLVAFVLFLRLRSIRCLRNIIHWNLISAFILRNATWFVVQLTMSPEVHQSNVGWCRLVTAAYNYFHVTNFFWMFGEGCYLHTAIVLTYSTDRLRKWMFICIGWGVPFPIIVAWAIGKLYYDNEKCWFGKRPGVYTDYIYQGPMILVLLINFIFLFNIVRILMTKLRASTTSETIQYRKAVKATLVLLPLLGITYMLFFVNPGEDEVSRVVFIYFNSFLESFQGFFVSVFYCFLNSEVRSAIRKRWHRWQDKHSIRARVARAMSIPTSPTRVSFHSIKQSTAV
Method in brief: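 Run as for the TeloHAEC line, except the full-activation control well received Sauvagine (100 nM) and final density was 4000 cells/well. Cells from clone 2 came from frozen aliquots of near-confluent cultures.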

Sprague Dawley rats = assay: Effect on systolic blood pressure, telemetry in Sprague Dawley rats; assay type: in vivo, rat; conditions: 0.1 mg/kg SC; for Systolic blood pressure (Mean) % change from baseline, 8 h / Systolic blood pressure (Mean) % change from baseline, 12 h / Systolic blood pressure (Mean) % change from baseline, 24 h: n=2; for Duration of action: last time point with an effect on BP still observed
Description: The effect of the compounds on systolic blood pressure was determined in telemetry studies in Sprague Dawley rats at a dosage of 0.1 mg/kg SC.
The rats were previously implanted with a telemetry device (DSI, Saint-Paul, USA, HD-S10, HD-S11 or HD S21) and allowed to recover for a minimum period of 2 weeks before treatment with vehicle or the different peptides. Blood pressure (BP) was recorded through a catheter inserted into the abdominal aorta. The device body was placed in the abdomen. The animals were allowed to recover from surgery for at least 10 days before the first administration of test drug or vehicle.
The chronically instrumented rats of the telemetry studies were individually housed immediately after surgery and then housed in pairs with a non-instrumented companion after recovery.
Systolic blood pressure was recorded for one hour before treatment (basal period). Thereafter, the subcutaneous administration of the test compound or its vehicle was performed, under continuous recording of the signal up to 48 hours, analysed and expressed as % change from baseline.
Representative data are presented in Table 13 below, in which “Duration of action” indicates the last time point for which an effect on BP was still observed (n=2 animals/peptide)

SMILES | EC50 (human CRF2a receptor) [nM] | Emax (% I) (CFR1R receptor) | EC50 (CFR1R receptor) [nM] | Systolic blood pressure (Mean) % change from baseline, 8 h (Sprague Dawley rats) [%] | Systolic blood pressure (Mean) % change from baseline, 12 h (Sprague Dawley rats) [%] | Systolic blood pressure (Mean) % change from baseline, 24 h (Sprague Dawley rats) [%] | Duration of action (Sprague Dawley rats) [h]
CCC[C@H](NC(=O)[C@H](CC(N)=O)NC(=O)[C@@H](NC(=O)[C@H](CCC(=O)O)NC(=O)[C@H](C)NC(=O)[C@H](CCC(N)=O)NC(=O)[C@H](CCC(=O)O)NC(=O)[C@H](CCCNC(=N)N)NC(=O)[C@H](CCC(N)=O)NC(=O)[C@H](CCCCN)NC(=O)[C@H](CCCCN)NC(=O)[C@H](CCC(N)=O)NC(=O)[C@H](CCCCN)NC(=O)[C@H](CCC(=O)O)NC(=O)[C@H](CCC(N)=O)NC(=O)[C@H](CCC(=O)O)NC(=O)[C@H](CC(C)C)NC(=O)[C@H](CC(C)C)NC(=O)[C@@H](NC(=O)[C@H](CCCCN)NC(=O)[C@H](CCCCNC(=O)CC[C@H](NC(=O)CCCCCCCCCCCCCCC(=O)O)C(=O)O)NC(=O)[C@H](CC(C)C)NC(=O)[C@H](CCCCN)NC(=O)[C@@H](NC(=O)[C@@H]1CCCN1C(=O)[C@H](NC(=O)[C@H](CC(=O)O)NC(=O)[C@H](CC(C)C)NC(=O)[C@H](CO)NC(=O)[C@H](CC(C)C)NC(=O)[C@@H](NC(=O)[C@@H](NC(C)=O)[C@@H](C)CC)C(C)C)C(C)C)[C@@H](C)CC)[C@@H](C)CC)[C@@H](C)O)C(=O)N[C@@H](CCC(N)=O)C(=O)N[C@H](C(=O)N[C@@H](CC(C)C)C(=O)N[C@@H](C)C(=O)N[C@@H](CCC(N)=O)C(=O)N[C@H](C(N)=O)C(C)C)[C@@H](C)CC [compound 52] (Ac-IVLSLD[dV]PIKLK([γGlu-C16 diacid])KILLEQEKQKKQREQAETN[Nva]QILAQV-NH2) | 0.17 | 7 | > 250 | −28 | −17 | 4 | 23
CCCCCCCCCC(=O)N[C@H](C(=O)N[C@@H](CC(C)C)C(=O)N[C@@H](CO)C(=O)N[C@@H](CC(C)C)C(=O)N[C@@H](CC(=O)O)C(=O)N[C@@H](C(=O)N1CCC[C@H]1C(=O)N[C@H](C(=O)N[C@@H](CCCCN)C(=O)N[C@@H](CC(C)C)C(=O)N[C@@H](CCCCNC(=O)CC[C@H](NC(=O)CCCCCCCCCCCCCCC(=O)O)C(=O)O)C(=O)N[C@@H](CCCCN)C(=O)N[C@H](C(=O)N[C@@H](CC(C)C)C(=O)N[C@@H](CC(C)C)C(=O)N[C@@H](CCC(=O)O)C(=O)N[C@@H](CCC(N)=O)C(=O)N[C@@H](CCC(=O)O)C(=O)N[C@@H](CCCCN)C(=O)N[C@@H](CCC(N)=O)C(=O)N[C@@H](CCCCN)C(=O)N[C@@H](CCCCN)C(=O)N[C@@H](CCC(N)=O)C(=O)N[C@@H](CCCNC(=N)N)C(=O)N[C@@H](CCC(=O)O)C(=O)N[C@@H](CCC(N)=O)C(=O)N[C@@H](C)C(=O)N[C@@H](CCC(=O)O)C(=O)N[C@H](C(=O)N[C@@H](CC(N)=O)C(=O)NC(C)(C)C(=O)N[C@@H](CCC(N)=O)C(=O)N[C@H](C(=O)N[C@@H](CC(C)C)C(=O)N[C@@H](C)C(=O)N[C@@H](CCC(N)=O)C(=O)N[C@H](C(N)=O)C(C)C)[C@@H](C)CC)[C@@H](C)O)[C@@H](C)CC)[C@@H](C)CC)C(C)C)C(C)C [compound 158] (Decanoyl-VLSLD[dV]PIKLK([γGlu-C16 diacid])KILLEQEKQKKQREQAETN[Aib]QILAQV-NH2) | 0.04 | 54 | – | −11 | −7 | 3 | 23
CCCCC(=O)N[C@H](C(=O)N[C@@H](CC(C)C)C(=O)N[C@@H](CO)C(=O)N[C@@H](CC(C)C)C(=O)N[C@@H](CC(=O)O)C(=O)N[C@@H](C(=O)N1CCC[C@H]1C(=O)N[C@H](C(=O)N[C@@H](CCCCN)C(=O)N[C@@H](CC(C)C)C(=O)N[C@@H](CCCCNC(=O)CC[C@H](NC(=O)CCCCCCCCCCCCCCCCC(=O)O)C(=O)O)C(=O)N[C@@H](CCCCN)C(=O)N[C@H](C(=O)N[C@@H](CC(C)C)C(=O)N[C@@H](CC(C)C)C(=O)N[C@@H](CCC(=O)O)C(=O)N[C@@H](CCC(N)=O)C(=O)N[C@@H](CCC(=O)O)C(=O)N[C@@H](CCCCN)C(=O)N[C@@H](CCC(N)=O)C(=O)N[C@@H](CCCCN)C(=O)NC(C)(C)C(=O)N[C@@H](CCC(N)=O)C(=O)N[C@@H](CCCNC(=N)N)C(=O)N[C@@H](CCC(=O)O)C(=O)N[C@@H](CCC(N)=O)C(=O)N[C@@H](C)C(=O)N[C@@H](CCC(=O)O)C(=O)N[C@H](C(=O)N[C@@H](CC(N)=O)C(=O)NC(C)(C)C(=O)N[C@@H](CCC(N)=O)C(=O)N[C@H](C(=O)N[C@@H](CC(C)C)C(=O)N[C@@H](C)C(=O)N[C@@H](CCC(N)=O)C(=O)N[C@H](C(N)=O)C(C)C)[C@@H](C)CC)[C@@H](C)O)[C@@H](C)CC)[C@@H](C)CC)C(C)C)C(C)C [compound 194] (Pentanoyl-VLSLD[dV]PIKLK([γGlu-C18 diacid])KILLEQEKQK[Aib]QREQAETN[Aib]QILAQV-NH2) | 0.44 | 10 | > 250 | −13 | −3 | 18 | 19
CC[C@H](C)[C@H](NC(C)=O)C(=O)N[C@H](C(=O)N[C@@H](CC(C)C)C(=O)N[C@@H](CO)C(=O)N[C@@H](CC(C)C)C(=O)N[C@@H](CC(=O)O)C(=O)N[C@@H](C(=O)N1CCC[C@H]1C(=O)N[C@H](C(=O)N[C@@H](CCCCN)C(=O)N[C@@H](CC(C)C)C(=O)N[C@@H](CCCCNC(=O)CC[C@H](NC(=O)CCCCCCCCCCCCCCCCCCC(=O)O)C(=O)O)C(=O)N[C@@H](CCCCN)C(=O)N[C@H](C(=O)N[C@@H](CC(C)C)C(=O)N[C@@H](CC(C)C)C(=O)N[C@@H](CCC(=O)O)C(=O)N[C@@H](CCC(N)=O)C(=O)N[C@@H](CCC(=O)O)C(=O)N[C@@H](CCCCN)C(=O)N[C@@H](CCC(N)=O)C(=O)N[C@@H](CCCCN)C(=O)NC(C)(C)C(=O)N[C@@H](CCC(N)=O)C(=O)N[C@@H](CCCNC(=N)N)C(=O)N[C@@H](CCC(=O)O)C(=O)N[C@@H](CCC(N)=O)C(=O)N[C@@H](C)C(=O)N[C@@H](CCC(=O)O)C(=O)N[C@H](C(=O)N[C@@H](CC(N)=O)C(=O)NC(C)(C)C(=O)N[C@@H](CCC(N)=O)C(=O)N[C@H](C(=O)N[C@@H](CC(C)C)C(=O)N[C@@H](C)C(=O)N[C@@H](CCC(N)=O)C(=O)N[C@H](C(N)=O)C(C)C)[C@@H](C)CC)[C@@H](C)O)[C@@H](C)CC)[C@@H](C)CC)C(C)C)C(C)C [compound 209] (Ac-IVLSLD[dV]PIKLK([γGlu-C20 diacid])KILLEQEKQK[Aib]QREQAETN[Aib]QILAQV-NH2) | 0.22 | 21 | > 250 | −18 | −11 | 3 | 23
